Data from patent US7750020B2, “Sulfonamide-thiazolpyridine derivatives as glucokinase activators useful the treatment of Type 2 diabetes” (Novartis AG, priority 2004, dated 2010).

Tested on: not given
Test: not given

Row | SMILES | melting point [°C]
1 | COc1ccc2nc(NC(=O)C(CC3CCCC3)c3ccc(S(=O)(=O)NC4CC4)cc3)sc2n1 (stereo not shown) [Example 4, 3-Cyclopentyl-2-(4-cyclopropylsulfamoyl-phenyl)-N-(5-methoxy-thiazolo[5,4-b]pyridin-2-yl)-propionamide] | 235 to 237
2 | COCCNS(=O)(=O)c1ccc(C(CC2CCCC2)C(=O)Nc2nc3ccc(OC)nc3s2)cc1 (stereo not shown) [Example 5, 3-Cyclopentyl-2-[4-(2-methoxy-ethylsulfamoyl)-phenyl]-N-(5-methoxy-thiazolo[5,4-b]pyridin-2-yl)-propionamide] | 209 to 211
3 | COc1cccc(CNS(=O)(=O)c2ccc(C(CC3CCCC3)C(=O)Nc3nc4ccc(OC)nc4s3)cc2)c1 (stereo not shown) [Example 6, 3-Cyclopentyl-2-[4-(3-methoxy-benzylsulfamoyl)-phenyl]-N-(5-methoxy-thiazolo[5,4-b]pyridin-2-yl)-propionamide] | 179 to 181
4 | COc1ccc2nc(NC(=O)C(CC3CCCC3)c3ccc(S(=O)(=O)Nc4ccccc4)cc3)sc2n1 (stereo not shown) [Example 7, 3-Cyclopentyl-N-(5-methoxy-thiazolo[5,4-b]pyridin-2-yl)-2-(4-phenylsulfamoyl-phenyl)-propionamide] | 223 to 226
5 | COc1ccc2nc(NC(=O)C(CC3CCCC3)c3ccc(S(=O)(=O)N(C(C)C)C(C)C)cc3)sc2n1 (stereo not shown) [Example 9, 3-Cyclopentyl-2-(4-diisopropylsulfamoyl-phenyl)-N-(5-methoxy-thiazolo[5,4-b]pyridin-2-yl)-propionamide] | 83 to 85
6 | COc1ccc2nc(NC(=O)C(CC3CCCC3)c3ccc(S(=O)(=O)NCc4ccco4)cc3)sc2n1 (stereo not shown) [Example 10, 3-Cyclopentyl-2-{4-[(furan-2-ylmethyl)-sulfamoyl]-phenyl}-N-(5-methoxy-thiazolo[5,4-b]pyridin-2-yl)-propionamide] | 244 to 247
7 | CCCN(c1ccccc1)S(=O)(=O)c1ccc(C(CC2CCCC2)C(=O)Nc2nc3ccc(OC)nc3s2)cc1 (stereo not shown) [Example 11, 3-Cyclopentyl-N-(5-methoxy-thiazolo[5,4-b]pyridin-2-yl)-2-[4-(phenyl-propyl-sulfamoyl)-phenyl]-propionamide] | 83 to 85
8 | COc1ccc2nc(NC(=O)C(CC3CCCC3)c3ccc(S(=O)(=O)N(C)C)cc3)sc2n1 (stereo not shown) [Example 12, 3-Cyclopentyl-2-(4-dimethylsulfamoyl-phenyl)-N-(5-methoxy-thiazolo[5,4-b]pyridin-2-yl)-propionamide] | 229 to 234
9 | CCN(CC)S(=O)(=O)c1ccc(C(CC2CCCC2)C(=O)Nc2nc3ccc(OC)nc3s2)cc1 (stereo not shown) [Example 13, 3-Cyclopentyl-2-(4-diethylsulfamoyl-phenyl)-N-(5-methoxy-thiazolo[5,4-b]pyridin-2-yl)-propionamide] | 150 to 152
10 | CCCN(CCC)S(=O)(=O)c1ccc(C(CC2CCCC2)C(=O)Nc2nc3ccc(OC)nc3s2)cc1 (stereo not shown) [Example 14, 3-Cyclopentyl-2-(4-dipropylsulfamoyl-phenyl)-N-(5-methoxy-thiazolo[5,4-b]pyridin-2-yl)-propionamide] | 64 to 66
11 | COc1ccc2nc(NC(=O)C(CC3CCCC3)c3ccc(S(=O)(=O)NCc4cccnc4)cc3)sc2n1 (stereo not shown) [Example 15, 3-Cyclopentyl-N-(5-methoxy-thiazolo[5,4-b]pyridin-2-yl)-2-{4-[(pyridin-3-ylmethyl)-sulfamoyl]-phenyl}-propionamide] | 227 to 229
12 | COc1ccc2nc(NC(=O)C(CC3CCCC3)c3ccc(S(=O)(=O)N4CCCCC4)cc3)sc2n1 (stereo not shown) [Example 17, 3-Cyclopentyl-N-(5-methoxy-thiazolo[5,4-b]pyridin-2-yl)-2-[4-(piperidine-1-sulfonyl)-phenyl]-propionamide] | 184 to 218
13 | COc1ccc2nc(NC(=O)C(CC3CCCC3)c3ccc(S(=O)(=O)N4CCOCC4)cc3)sc2n1 (stereo not shown) [Example 18, 3-Cyclopentyl-N-(5-methoxy-thiazolo[5,4-b]pyridin-2-yl)-2-[4-(morpholine-4-sulfonyl)-phenyl]-propionamide] | 120 to 123
14 | COc1ccc2nc(NC(=O)C(CC3CCCC3)c3ccc(S(=O)(=O)NCc4cccs4)cc3)sc2n1 (stereo not shown) [Example 19, 3-Cyclopentyl-N-(5-methoxy-thiazolo[5,4-b]pyridin-2-yl)-2-{4-[(thiophen-2-ylmethyl)-sulfamoyl]-phenyl}-propionamide] | 263 to 268
15 | COc1ccc2nc(NC(=O)C(CC3CCCC3)c3ccc(S(=O)(=O)Nc4cccnc4)cc3)sc2n1 (stereo not shown) [Example 20, 3-Cyclopentyl-N-(5-methoxy-thiazolo[5,4-b]pyridin-2-yl)-2-[4-(pyridin-3-ylsulfamoyl)-phenyl]-propionamide] | 125 to 127
16 | COc1ccc2nc(NC(=O)C(CC3CCCC3)c3ccc(S(=O)(=O)NCc4ccccc4F)cc3)sc2n1 (stereo not shown) [Example 21, 3-Cyclopentyl-2-[4-(2-fluoro-benzylsulfamoyl)-phenyl]-N-(5-methoxy-thiazolo[5,4-b]pyridin-2-yl)-propionamide] | 238 to 240
17 | COc1ccc2nc(NC(=O)C(CC3CCCC3)c3ccc(S(=O)(=O)NCc4ccccc4)cc3)sc2n1 (stereo not shown) [Example 23, 2-(4-Benzylsulfamoyl-phenyl)-3-cyclopentyl-N-(5-methoxy-thiazolo[5,4-b]pyridin-2-yl)-propionamide] | 237 to 240
18 | COc1ccc2nc(NC(=O)C(CC3CCCC3)c3ccc(S(=O)(=O)N(C)Cc4ccccc4)cc3)sc2n1 (stereo not shown) [Example 24, 2-[4-(Benzyl-methyl-sulfamoyl)-phenyl]-3-cyclopentyl-N-(5-methoxy-thiazolo[5,4-b]pyridin-2-yl)-propionamide] | 206 to 208
19 | CCCCN(CCCC)S(=O)(=O)c1ccc(C(CC2CCCC2)C(=O)Nc2nc3ccc(OC)nc3s2)cc1 (stereo not shown) [Example 25, 3-Cyclopentyl-2-(4-dibutylsulfamoyl-phenyl)-N-(5-methoxy-thiazolo[5,4-b]pyridin-2-yl)-propionamide] | 65 to 67
20 | CCN1CCN(S(=O)(=O)c2ccc(C(CC3CCCC3)C(=O)Nc3nc4ccc(OC)nc4s3)cc2)CC1 (stereo not shown) [Example 26, 3-Cyclopentyl-2-[4-(4-ethyl-piperazine-1-sulfonyl)-phenyl]-N-(5-methoxy-thiazolo[5,4-b]pyridin-2-yl)-propionamide] | 106 to 110
21 | COc1ccc2nc(NC(=O)C(CC3CCCC3)c3ccc(S(=O)(=O)N4CCN(C(C)=O)CC4)cc3)sc2n1 (stereo not shown) [Example 27, 2-[4-(4-Acetyl-piperazine-1-sulfonyl)-phenyl]-3-cyclopentyl-N-(5-methoxy-thiazolo[5,4-b]pyridin-2-yl)-propionamide] | 215 to 217

Target: T1, recombinant GST-GK (Homo sapiens, UniProt P35557)
T1 sequence (P35557 1-465): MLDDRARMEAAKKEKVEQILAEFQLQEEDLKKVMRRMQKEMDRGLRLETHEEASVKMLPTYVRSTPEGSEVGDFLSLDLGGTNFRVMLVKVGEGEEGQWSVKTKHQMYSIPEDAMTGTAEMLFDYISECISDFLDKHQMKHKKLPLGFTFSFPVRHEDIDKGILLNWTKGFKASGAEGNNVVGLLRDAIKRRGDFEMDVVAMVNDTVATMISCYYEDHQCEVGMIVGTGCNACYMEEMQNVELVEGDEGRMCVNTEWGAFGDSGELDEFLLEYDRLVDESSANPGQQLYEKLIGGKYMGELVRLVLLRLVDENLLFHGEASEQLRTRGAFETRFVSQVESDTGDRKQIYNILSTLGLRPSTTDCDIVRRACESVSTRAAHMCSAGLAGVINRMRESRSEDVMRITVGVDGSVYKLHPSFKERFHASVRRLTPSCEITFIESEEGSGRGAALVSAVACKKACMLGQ
Test: in vitro assay measuring the activation of recombinant GST-GK
Format: biochemical
Excerpt: The glucokinase activation in vitro may be determined by measuring the activation of recombinant GST-GK by a compound of the present invention in the absence or the presence of GKRP, a 68,000 Da protein inhibitor of GK. In these assays, formation of glucose-6-phosphate is coupled directly to the formation of thioNADH. GST-GK catalyzes the reaction of glucose and Mg-ATP to produce glucose-6-phosphate and ADP. Glucose-6-phosphate dehydrogenase (G6PDH) reduces thionicotinamide (thioNAD) to thioNADH. The assay measures the formation of […] at 405 nM.
The basic GK assay components are as follows: 25 mM HEPES (pH 7.1), 25 mM KCl, 2.5 mM MgCl2, 1 mM ATP (Sigma A-5394), 1 mM DTT, 1 mM thioNAD (Sigma T-7375), 80 units/mL G6PDH (Sigma G-5885), 10 mM glucose and […] GST-GK (110 nM). For assessing reversal of GK inhibition by GKRP, 20 μM Fructose-1-phosphate ([…]) and 25 μg/mL of recombinant GKRP (370 nM) are added to these assay components. F-1-P at 1 μM is used as a control in the GK/GKRP assay. F-1-P reverses inhibition of GST-GK by GKRP.
The assay is done in standard, 96-well, round-bottom plates and the total assay volume is 25 μL. […] The plates are then delivered via the Zymark XP arm to a Thermomax plate reader and read kinetically over three min at 405 nM at RT. Units are expressed as milli-optical density per minute (mOD/min).

Row | SMILES | EC50 [nM]
22 | COc1ccc2nc(NC(=O)C(CC3CCCC3)c3ccc(S(=O)(=O)N4CCN(C)CC4)cc3)sc2n1 (stereo not shown) [Example 1, 3-Cyclopentyl-N-(5-methoxy-thiazolo[5,4-b]pyridin-2-yl)-2-[4-(4-methyl-piperazine-1-sulfonyl)-phenyl]-propionamide] | ~251
